Measurements as given in article PMC5540946, “Stress-Driven Discovery of Novel Cryptic Antibiotics from a Marine Fungus Penicillium sp. BB1122” (Frontiers in Microbiology, 2017).
Values after ≈ are worked out from the molar mass of the structure shown. Like-named read-outs stand apart in the source and are kept apart here.

Key:
Type in all cases: cell-based
[1] = test system: methicillin resistant Staphylococcus aureus (MRSA); assay: Broth dilution antibacterial assay (MIC, MBC by subculture) against MRSA; conditions: for MIC: 18 h
Description: (§1) The conventional broth dilution assay was used to evaluate the antibacterial activities. Three clinical pathogens namely MRSA, P. aeruginosa [CMCC(B)10104], and K. pneumoniae [CMCC(B)46117] were cultured and left overnight to grow. Each pathogenic culture was then diluted in 0.9% saline to an inoculum density of 5 × 10^5 cfu by comparison with a McFarland standard. Tetracycline was dissolved in Mueller–Hinton broth with a starting concentration of 512 μg/mL and was used as positive control whereas methanol was used as negative control. A total of 125 μL of MHB was distributed into the 96-well plates. A total of 125 μL of the different samples were dispensed into well 1 and serially diluted across the plate. Ultimately, addition of 125 μL of the bacterial inoculum was performed and the plates were incubated at 37°C for 18 h. The bacteriostatic abilities of the compounds were noted as MICs which were done in triplicate. Five milligrams per milliliter of methanolic solution of 3-[4,5-dimethylthiazol-2-yl]-2,5-diphenyltetrazolium bromide (MTT; Lancaster) was used to detect bacterial growth by a change in color from yellow to blue ([Appendino et al., 2008]).
(§2) Ten microliters of broth with no visible growth were taken from the wells and sub-cultured on nutrient agar plates. The negative control consisted of nutrient agar and the inoculum which was then compared with the number of colonies on the agar. The bactericidal abilities of the compounds were noted as MBCs which was equal to the lowest concentration of the samples which killed 99.9% of the original inoculum ([Clinical and Laboratory Standards Institute, 2014]).

[2] = test system: K. pneumoniae [CMCC(B)46117]; assay: Broth dilution antibacterial assay (MIC, MBC by subculture) against K. pneumoniae; conditions: Klebsiella pneumoniae
Description: as §1, §2

[3] = test system: P. aeruginosa [CMCC(B)10104]; assay: Broth dilution antibacterial assay (MIC, MBC by subculture) against P. aeruginosa; conditions: Pseudomonas aeruginosa; for MIC: 18 h, broth dilution, 37°C, triplicate; for MBC: lowest concentration killing 99.9% of original inoculum
Description: as §1, §2

[4] = test system: Human liver cell line LO2; assay: Cytotoxicity assay (MTT); conditions: normal liver cell line LO2, MTT, triplicate
Description: Human liver cell line LO2 was obtained from the Institute of Biochemistry and Cell Biology (Chinese Academy of Sciences). LO2 cells were maintained in RPMI 1640 containing 10% fetal bovine serum (FBS), 100 units/mL penicillin and 100 units/mL streptomycin. All the cells were grown in a humidified cell incubator with an atmosphere of 5% CO2 at 37°C and subcultured with 0.25% trypsin + 0.02% EDTA. MTT, dimethyl sulfoxide (DMSO), ribonuclease (RNase), propidium iodide (PI), Annexin V-FITC/PI kit were obtained from Sigma. RPMI 1640, DMEM, FBS were purchased from Gibco. Hoechst, trypsin, and the pan caspase inhibitor z-VAD-FMK were obtained from Beyotime Institute of Biotechnology. Compounds were dissolved in DMSO and diluted to the proper concentrations before use, with the concentration of DMSO kept below 0.1% in all assays. Cell viability was measured by the MTT method as previously described, with some modifications ([Jiang et al., 2013]). Briefly, cells were seeded in 96-well microtiter plates at a density of 5 × 10^3 cells/well for 24 h. After drug treatment for the indicated times, cells were incubated with MTT (0.5 mg/mL) for 4 h. The formazan precipitate was dissolved in 150 μL DMSO, and the absorbance was detected at 490 nm with a Sunrise microplate reader (Tecan Group Ltd.). DMSO (0.1%) was used as negative control for all assays. Each test was performed in triplicate.

[5] = broth dilution, 37°C, 18 h, triplicate
[6] = lowest concentration killing 99.9% of original inoculum, read-out: MBC
[7] = lowest concentration killing 99.9% of original inoculum

Structure (SMILES): COc1cc(=O)oc(/C=C/C=C/C=C/[C@@]2(C)O[C@]3(C)[C@@H](O)[C@@](C)(O[C@@H]3C)[C@@H]2O)c1C [Compound 3, epicitreoviridinol]
- MBC ([1]; Staphylococcus aureus): 2 µg/mL (≈ 4.78 µM)
- MIC ([1]; Staphylococcus aureus): 1 µg/mL (≈ 2.39 µM)
- MIC [2]: > 128 µg/mL
- MBC ([2]; read-out: MBC): > 128 µg/mL
- MIC ([3]; read-out: MIC): 64 µg/mL (≈ 153 µM)
- MBC ([3]; read-out: MBC): 128 µg/mL (≈ 306 µM)

Structure (SMILES): COc1cc(=O)oc(/C=C/C=C/C=C/[C@@]2(C)O[C@@]3(C)[C@H](O)[C@](C)(O[C@H]3C)[C@@H]2O)c1C [Compound 4, epiisocitreoviridinol]
- MBC ([1]; Staphylococcus aureus): 128 µg/mL (≈ 306 µM)
- MIC ([1]; Staphylococcus aureus): 64 µg/mL (≈ 153 µM)
- MIC [2]: > 128 µg/mL
- MBC ([2]; read-out: MBC): > 128 µg/mL
- MIC ([3]; read-out: MIC): 64 µg/mL (≈ 153 µM)
- MBC ([3]; read-out: MBC): 128 µg/mL (≈ 306 µM)

Structure (SMILES): COc1cc(=O)oc(C=CC=CC=CC2(C)OC3(C)C(C)OC(C)(C2O)C3O)c1C (stereo not shown) [Compound 5, 10Z-isocitreoviridinol]
- MBC ([1]; Staphylococcus aureus): 2 µg/mL (≈ 4.78 µM)
- MIC ([1]; Staphylococcus aureus): 1 µg/mL (≈ 2.39 µM)
- MIC [2, 5]: 64 µg/mL (≈ 153 µM)
- MBC [2, 6]: 128 µg/mL (≈ 306 µM)
- MIC ([3]; read-out: MIC): 8 µg/mL (≈ 19.1 µM)
- MBC ([3]; read-out: MBC): 16 µg/mL (≈ 38.2 µM)

Structure (SMILES): COc1cc(=O)oc(C(O)C=CC=CC=C(C)C2OC3(C)C(C)OC2(C)C3O)c1C (stereo not shown) [Compound 8, Isopenicillstressol]
- MBC [1, 7]: 1 µg/mL (≈ 2.39 µM)
- MBC [2, 7]: 128 µg/mL (≈ 306 µM)
- IC50 [4]: above 100 μg/mL
- MBC [3]: 8 µg/mL (≈ 19.1 µM)

Structure (SMILES): COc1cc(=O)oc(/C=C/C=C/C=C/[C@@]2(C)O[C@]3(C)[C@@H](O)[C@@](C)(O[C@@H]3C)[C@H]2O)c1C [Compound 6, citreoviridinol]
- MBC ([1]; Staphylococcus aureus): 8 µg/mL (≈ 19.1 µM)
- MIC ([1]; Staphylococcus aureus): 4 µg/mL (≈ 9.56 µM)
- MIC [2]: > 128 µg/mL
- MBC ([2]; read-out: MBC): > 128 µg/mL
- MIC ([3]; read-out: MIC): 64 µg/mL (≈ 153 µM)
- MBC ([3]; read-out: MBC): 128 µg/mL (≈ 306 µM)

Structure (SMILES): COc1cc(=O)oc(C(O)C=CC=CC=C(C)C2OC3(C)C(C)OC2(C)C3O)c1C (stereo not shown) [Compound 7, Penicillstressol]
- MBC ([1]; Staphylococcus aureus): 1 µg/mL (≈ 2.39 µM)
- MIC ([1]; Staphylococcus aureus): 0.5 µg/mL (≈ 1.19 µM)
- MIC [2, 5]: 64 µg/mL (≈ 153 µM)
- MBC [2, 6]: 128 µg/mL (≈ 306 µM)
- IC50 ([4]; Homo sapiens, read-out: IC50): > 100 µg/mL
- MIC ([3]; read-out: MIC): 4 µg/mL (≈ 9.56 µM)
- MBC ([3]; read-out: MBC): 8 µg/mL (≈ 19.1 µM)

Structure (SMILES): COc1cc(=O)oc(C=CC=CC=CC(C)=CC2(C)OC(C)C(C)(O)C2O)c1C (stereo not shown) [Compound 2, citreoviridin]
- MBC [1, 7]: 128 µg/mL (≈ 318 µM)
- MBC [2, 7]: 128 µg/mL (≈ 318 µM)
- MIC [3]: 8 µg/mL (≈ 19.9 µM)
- MBC [3]: 16 µg/mL (≈ 39.8 µM)

Structure (SMILES): CN(C)[C@@H]1C(O)=C(C(N)=O)C(=O)[C@@]2(O)C(O)=C3C(=O)c4c(O)cccc4[C@@](C)(O)[C@H]3C[C@@H]12 [Tetracycline, reference compound]
- MBC ([1]; Staphylococcus aureus): 4 µg/mL (≈ 9 µM)
- MIC ([1]; Staphylococcus aureus): 2 µg/mL (≈ 4.5 µM)
- MIC ([1]; broth dilution, 37°C, triplicate): around 2 µg/mL
- MIC [2, 5]: 64 µg/mL (≈ 144 µM)
- MBC [2, 6]: 128 µg/mL (≈ 288 µM)
- MIC ([3]; read-out: MIC): 8 µg/mL (≈ 18 µM)
- MBC ([3]; read-out: MBC): 16 µg/mL (≈ 36 µM)

Structure (SMILES): COc1cc(=O)oc(C=CC=CC=CC(C)=CC2(C)OC(C)C(C)(O)C2O)c1C (stereo not shown) [Compound 1, Neocitreoviridin]
- MBC ([1]; Staphylococcus aureus): 128 µg/mL (≈ 318 µM)
- MIC ([1]; Staphylococcus aureus): 64 µg/mL (≈ 159 µM)
- MIC [2, 5]: 64 µg/mL (≈ 159 µM)
- MBC [2, 6]: 128 µg/mL (≈ 318 µM)
- MIC ([3]; read-out: MIC): 4 µg/mL (≈ 9.94 µM)
- MBC ([3]; read-out: MBC): 8 µg/mL (≈ 19.9 µM)
